test: Human HepG2 cell viability assay in 384 well format; type: toxicity, cell-based; design: dose 125 nL, time 70.5 hour; concentration not given beside the values; conditions: HepG2 cells, read-out: Inhibition

SMILES | cytotoxicity at 70.5 h
Cc1nc(CN2C[C@@H]3CCCO[C@@H]3[C@H](NC(=O)CC3CC3)C2)cs1 | -0.515%
CCn1cc(C(=O)Nc2ccccc2C(=O)OC)cn1 | 13.1%
NC(=O)c1cnc(NC2CC2)nc1CCNC(=O)Cc1ccccc1 | -5.85%
N#CCCCS(=O)(=O)NC1(c2cccc(Br)c2)CC1 | -8.99%
Cn1cnnc1C1CCCN(Cc2nc(Cc3ccccc3)no2)C1 (stereo unspecified) | 13%
COCC(=O)N1CC[C@@H](OCC2CC2)[C@@H]1Cc1cccnc1 | 0.787%
CN(C)Cc1csc(-c2nccn2CCc2cccnc2)c1 | -8%
CCOCC(=O)NS(=O)(=O)c1ccc(F)cc1C(F)(F)F | -4.87%
COC(=O)c1cccc(CNC(=O)CCC(F)(F)F)c1 | -3.83%
Cc1csc(CNC(=O)Cc2ccc3c(c2)OCCO3)n1 | -5.71%
O=C(c1ccc2c(c1)COC2)N1CCCN(Cc2cscn2)CC1 | 1.09%
CCCc1nnc([C@H]2CCN(Cc3ncc[nH]3)C2)o1 | -1.6%
Cc1noc([C@@H]2CCO[C@@H]3CCN(Cc4nccs4)C[C@@H]32)n1 | 9.78%
O=C(NCC1CC1)[C@@H]1CCO[C@@H]2CCN(Cc3ccc(F)cc3)C[C@H]21 | -4.34%
Cc1ccc(N2CC[C@@H]3[C@@H]2CCN3C(=O)Cc2ccccc2)nn1 | 5.36%
CCc1nc(CN2CCCN(c3cnc4ccccc4n3)CC2)no1 | -2.11%
CCC(C)(C)NC(=O)COC(=O)c1cc(C)ccc1NC(=O)N(C)C | -7.98%
CC(C)N1CC(C(=O)N2CCN(CCn3cccc3)CC2)CC1=O (stereo unspecified) | -3.03%
Cc1ccc(OCC(=O)NCc2sccc2C)nc1 | -3.68%
CC1CCCCN1C1CN(c2nc(C3CCCC3)nc3c2cnn3C)C1 (stereo unspecified) | -3.67%
COC(=O)c1sccc1S(=O)(=O)N1CCC(Oc2cccc(C)n2)CC1 | -9.62%

SMILES | cytotoxicity at 70.5 h
Cc1[nH]ncc1C(=O)N1CCCC(c2ccn[nH]2)C1 (stereo unspecified) | -12.2%
Cc1ccc(-n2ncc3c2CCCC3N)cc1C (stereo unspecified) | -4%
COc1cccc(CNc2cccnc2-n2cccn2)c1OC | -14.7%
Cc1ccc(-c2cnn(CC(=O)NC(C)C)c2)cc1 | -3.29%
Cc1noc(C)c1CN1CC[C@H]2OCC[C@@]2(C(=O)NC2CCCC2)C1 | -9.16%
O=C(c1ccnc(CC2COc3ccccc3C2)c1)N1CCCC1 (stereo unspecified) | -23.5%
Cn1c(CN2CCOC[C@H]2c2nc(C(C)(C)C)co2)nc2ccccc21 | -0.449%
CC(CN1CCOCC1)NC(=O)N(C)Cc1ccc(Cl)s1 (stereo unspecified) | -2.73%
CCNC(=O)c1ccnc(N2CCCC(COc3ccccc3C)C2)c1 (stereo unspecified) | -21.9%
Nc1cc(-c2c[nH]nc2C2CCCN2S(=O)(=O)c2ccccc2)ccn1 (stereo unspecified) | -2.78%
COCCNC(=O)[C@H]1C[C@@H]2CCN(Cc3nccs3)C[C@H]2O1 | -13.5%
Cc1nn2cccnc2c1C(=O)N1CCCC(n2ccnc2)C1 (stereo unspecified) | -4.78%
COc1ccc(C2CN(c3cc(C)ncn3)CCN2C(C)=O)cc1 (stereo unspecified) | -5.95%
CNc1cc2c(nn1)CCN(C(=O)C1CCCc3ccccc31)C2 (stereo unspecified) | -19%
CS(=O)(=O)NCC1CCCN(C(=O)Nc2ccccc2Cl)C1 (stereo unspecified) | 1.65%
COCCNC(=O)NC(c1ccccc1)c1ccccc1OC (stereo unspecified) | -3.63%
CS(=O)(=O)N1CCC2(CC1)CC(NCc1ccccn1)c1ccccc12 (stereo unspecified) | -9.6%
CCOC(=O)N1CCCC2(CCCNC2)C1 (stereo unspecified) | -1.34%
CC(=O)N1CCc2nc(-c3ccc(F)cc3)nc(NC(C)C)c2CC1 | 7.5%
Cc1nn(C)c(C)c1C(=O)NN1CCOCC1 | -6.78%
COc1ccccc1C1(O)CCCN(C(=O)c2cnc(SC)nc2)C1 (stereo unspecified) | -3.73%

SMILES | cytotoxicity at 70.5 h
O=C(NCCn1nc(-n2cncn2)ccc1=O)c1ccccc1Br | -5.84%
CCS(=O)(=O)N1CCN(Cc2cccnc2)c2nc(C)ccc2C1 | 5.16%
N#Cc1ncn(Cc2c(F)cccc2Cl)n1 | -5.34%
c1cncc(NCCCNC2CCSC2)c1 (stereo unspecified) | -3.16%
Cc1cnc(C)c(N2CCCC(C/C=C/c3ccccc3)(C(=O)O)C2)n1 (stereo unspecified) | -7.68%
CCCn1ccnc1CN1CCC(Oc2cccc(F)c2)(C(=O)O)CC1 | -11%
Cn1ccnc1-c1cn(CCCc2csc(N)n2)nn1 | -15.7%
CN1CC2(CCN(C(=O)c3ccc4nonc4c3)CC2)CC1=O | -11.3%
CC(C)(C)OC(=O)NC1(c2noc(-c3ccco3)n2)CCC1 | -9.18%
COCCC(=O)N1CCC2(CC1)CC(c1ccccc1)CN(C)C2 (stereo unspecified) | -5.14%
O=S(=O)(CCCNC1CCc2ncnn2C1)c1ccccc1 (stereo unspecified) | 23.5%
CN(C)c1nc2c(c(N3CCC(O)CC3)n1)CN(CC1CCNC1)CC2 (stereo unspecified) | -11.3%
COCCn1ccnc1C1CCN(C(=O)CSc2nnc(C)o2)CC1 | 9.15%
Cc1csc([C@H]2C[C@H]3CN(Cc4cc(C)on4)CC[C@@H]3O2)n1 | -7.64%
COCCCNC(=O)Cn1c(-c2cccc(Cl)c2)nc(C)cc1=O | 2.43%
COc1cccc(NC(=O)CCCc2nc(C(C)C)no2)c1 | 5.69%
Cc1ocnc1C(=O)Nc1ccc(-c2nnc(N(C)C)o2)cc1 | -3.15%
COc1ccccc1NCC(=O)NCc1scnc1C | 13.6%
CCN(CC)C(=O)Cn1cc(C(=O)NCCc2scnc2C)nn1 | -1.44%
Cc1cc(CN2CCc3nc(C)n(C)c(=O)c3CC2)[nH]n1 | -5.95%
CC(C)NC(=O)C1CN(C(=O)Cc2cccc(F)c2)CC12CCOCC2 (stereo unspecified) | 10.1%

SMILES | cytotoxicity at 70.5 h
CN1CCc2nc(C3CCCCN3Cc3ccccc3Cl)ncc2C1 (stereo unspecified) | -4.18%
COc1c(CNCC(O)c2ccc(C)cc2)c(C(C)C)nn1C (stereo unspecified) | -3.08%
Cc1noc(CN2CCCC2c2noc(C3CC3)n2)n1 (stereo unspecified) | 20.7%
COCCNC(=O)N1CC(Cc2ccccc2F)C1 | -4.03%
Cc1nsc(NCc2ccc(S(=O)(=O)N(C)C(C)C)cc2)n1 | 16.6%
Cc1nc2ccccc2nc1CN1CCCCC1Cn1cccn1 (stereo unspecified) | -12.7%
O=c1[nH]c(-c2ccccc2)nc2c1CCN(S(=O)(=O)N1CCCC1)C2 | -7.26%
Cc1ccc(OC2(C(=O)O)CCN(C(=O)c3cccc(F)c3)CC2)cn1 | 2.13%
O=C(NCC(O)Cc1ccccc1)c1ccc2[nH]c(=O)[nH]c2c1 (stereo unspecified) | -6.14%
CCOC(=O)CSc1nnc(C(N)CC(C)C)o1 (stereo unspecified) | -7.86%
CC(=O)N1CCC(C(=O)N(C)[C@@H]2CCC[C@@H](N3CCCC3)[C@@H]2O)CC1 | 41.3%
CCc1nc(CN2CCN(CC(O)c3ccccc3)CC2)no1 (stereo unspecified) | 17.3%
CCCc1cc(C(=O)NC(C)c2ccccc2)n(C)n1 (stereo unspecified) | -2.33%
CCCSc1ccccc1NC(=O)N1CCN(C(=O)c2ccc[nH]2)CC1 | -1.4%
COc1ccc(CNC(C)c2cccc(Cl)c2)c(OC)c1OC (stereo unspecified) | -0.149%
CCOc1ccc(S(=O)(=O)N(C)Cc2cnn(CC)c2)cc1 | -2.15%
COc1ccc2c(c1)C1(CCN(Cc3ccncc3)CC1)N(C)CC2 | -10.8%
CC(C)CNC(=O)CN1C=Nc2ccccc2S1(=O)=O | 20.2%

From ChEMBL document CHEMBL3507680, “University of Dundee, Gates Library screen for HepG2 cell viability”
